Patent publication US20120035187A1 (priority 2009, published 2012)

What was measured:
[1] = test system: brain ischemia rat; assay: Brain ischemia (cerebral infarction model) rat: behavioral score; type: in vivo; design: Behavioral score: scale not given here; conditions: for behavioral score (in words): Experiment 13, cerebral-infarction-model rat, administered through caudal vein
Protocol: Male SD rats, seven- to eight-weeks of age and 280 to 330 g body weight, commercialized by Charles River Laboratories Japan Inc., Kanagawa, Japan, were allocated randomly into seven groups, consisting of five to seven rats in each group. Among the seven groups, five groups were subjected to the following surgery as test groups: Rats in the test groups were subcutaneously administered with 0.3 mg/kg body weight of atropine, commercialized by Fuso Pharmaceutical industries, Osaka, Japan. Successively, each rat was anesthetized by administrating 600 mg/kg body weight of urethane, commercialized by Sigma-Aldrich Co., MO, USA, and 60 mg/kg-weight of […], commercialized by Sigma-Aldrich Co., MO, USA, into the peritoneal cavity, and fixed to a fixator under voluntary breathing conditions. The right carotid artery bifurcation was exposed by median incision of the neck without damaging vagus nerve. The common carotid artery and external carotid artery around the right carotid artery bifurcation were exfoliated from surrounding connective tissue and wired respectively using “NESCOSUTURE”, a 6-0 nylon string commercialized by Alfresa Pharma Corporation, Osaka, Japan. Then, the internal carotid artery was tied with the 6-0 nylon string for fixation after insertion of an obturator. Successively, the common carotid artery was incised and a silicon-coated obturator, prepared by a 4-0 nylon string, commercialized by Doccol Corp., CA, USA, was inserted from the common carotid artery into the internal carotid artery at a distance of about 16 mm, and clipped to the common carotid artery (see, for example, Koizumi et al., Cerebral stroke, Vol. 8, No. 1, pp. 1-8 (1986)). By the method, the silicon-coated tip of obturator was inserted through the right carotid artery bifurcation to frontal cerebral artery at a distance of about 2 mm and obstructs the inlet of the medial cerebral artery. After two hours occlusion of the medial cerebral artery while keeping the rat on an isothermal pad controlled at a temperature of 37° C., blood was allowed to reperfuse by withdrawing the obturator. Then, the internal carotid artery was tied near the carotid artery bifurcation for preventing the bleeding from the incised part of the common carotid artery. In the model, the blood was reperfused through the left carotid artery, vertebral artery, basilar artery, frontal and backward communication artery because the right carotid artery was clipped.
NK-4, NK-19, NK-53, NK-100, and NK-557, used in the test, were respectively dissolved in DMSO (product No. “D8418”, commercialized by Sigma-Aldrich Co., MO, USA) to give a concentration of 5 mg/ml and filtrated using “MILLEX-LG SLLG025SS”, a DMSO-resistant membrane filter commercialized by Millipore, MA, USA. Stock […], and then 4 ml/kg body weight of any of the resulting diluted solutions was administered ([…]) to five test groups (test groups 1 to 5) consisting of five or seven rats, through their caudal veins at both after one hour from the occlusion of middle cerebral artery and immediately after initiating reperfusion. After 24 hours from the reperfusion of blood, behavioral and histological evaluations of rats were carried out according to the following procedures: As a control group 1, five rats in one group out of the remaining two groups were subjected to the same surgery as the rats in the test groups 1 to 5, and administered with 4 ml/kg body weight of PBS free of any of the compounds through their caudal veins at both after one hour of the medial cerebral artery occlusion and immediately after the start of reperfusion. As the control group 2, six rats in the remaining one group were subjected to a sham surgery, in which common, external, and internal carotid arteries were clipped and then reperfused their blood without inserting the obturator to each medial cerebral artery. […]

[2] = target: T1, human amyloid β peptide (Homo sapiens, UniProt P05067); assay: Agglutination of amyloid β peptide, thioflavine T method; type: biochemical; conditions: 45 μl of 200 nM test sample solution + 15 μl amyloid β peptide solution, 37° C., six days, thioflavine T fluorescence; for inhibition at 0.2 µM: read-out: Inhibition rate (%) of agglutination of amyloid β peptide
T1 construct: purchased AnaSpec Inc., CA, USA
T1 sequence (P05067 672-711): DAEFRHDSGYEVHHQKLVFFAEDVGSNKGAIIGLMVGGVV
Protocol: The filtrate was made into a test sample solution by adjusting the concentration to 200 nM using Tris-HCl buffer.
The agglutination of amyloid β peptide was measured by a method using thioflavine T (see Hilal A. Lashuel et al., Journal of Biological Chemistry, Vol. 277, No. 45, pp. 42881-42890 (2002)). Thioflavine T binds to […] structure of agglutinated amyloid β peptide and produces fluorescence. The amount of the fluorescence was determined using a fluorometric plate reader and used as an index of the agglutination of amyloid β peptide. When the agglutination of amyloid β peptide is inhibited by the test sample, fluorescence of Thioflavine T is decreased. The effects of the test samples on the agglutination of amyloid β peptide were investigated by the method. A human amyloid β peptide, having the amino acid sequence of SEQ ID NO:2 consisting of 40 amino acids, commercialized by AnaSpec Inc., CA, USA, was dissolved in sterilized distilled water to give a concentration of 400 μM for use. Test samples were diluted with Tris-HCl buffer. In a reaction vessel, 15 μl of […] admixed with 45 μl of a 200 nM test sample solution and allowed to react at 37° C. for six days. After the reaction, 50 μl of the reaction mixture was withdrawn, admixed with 450 μl of a 10 μM Thioflavine T solution, and after 30 minutes, the resulting fluorescence was measured using a fluorometer (excitation wavelength: 450 nm, […]: 482 nm). The fluorescent intensity of Thioflavine T only was regarded as 0%, and that of the solution, prepared by mixing 15 μl of a […] amyloid β peptide solution and 45 μl of Tris-HCl buffer and allowing to react at 37° C. for six days, was regarded as 100%. Inhibition rate (%) of the agglutination of amyloid β peptide was determined by the steps of measuring the relative fluorescence intensity in the case of using each test sample solution for the reaction, and subtracting the measured value from 100%.

[3] = brain ischemia rats (embolus, 2 h occlusion, reperfusion), 100 p g/kg body weight via caudal vein 1 h after occlusion and at reperfusion, 24 hours after reperfusion, maximum score 6
[4] = embolus rat, dose 100 μg per kg body weight, caudal vein

Q: For CC[n+]1ccccc1/C=C/c1ccc(N(C)C)cc1 [NK-557], which Behavioral score [1, 3] is on record?
A: 2.9 ± 0.3

Q: What about the inhibition at 0.2 µM [2] of the same molecule?
A: 95%

Q: Which results are given for CCN1/C(=C/C=C(/C=C/c2sc3ccccc3[n+]2CC)c2sc3ccccc3[n+]2CC)Sc2ccccc21.[I-].[I-] [NK-100]?
A: Behavioral score [1, 3]: 2.4 ± 0.2; inhibition at 0.2 µM [2]: 99%

Q: What does the source list for CCCCN1C=C/C(=C/C=C(/C=C/c2cc[n+](CCCC)c3ccccc23)c2cc[n+](CCCC)c3ccccc23)c2ccccc21 [NK-26]?
A: behavioral score (in words) [1]: significantly improved; Behavioral score ([1]; embolus rat, dose 1 μg per kg body weight, caudal vein): 4.4 ± 0.4; Behavioral score ([1]; embolus rat, dose 10 μg per kg body weight, caudal vein): 3.44 ± 0.6; Behavioral score [1, 4]: 4.3 ± 0.4

Q: What does the source list for CCN1C=CC(=CC=C(C=Cc2cc[n+](CC)c3ccccc23)c2cc[n+](CC)c3ccccc23)c2ccccc21.[I-].[I-] [NK-4]?
A: behavioral score (in words) [1]: significantly improved; Behavioral score [1, 3]: 2.9 ± 0.2; Behavioral score ([1]; embolus rat, dose 25 μg per kg body weight, caudal vein): 4.5 ± 0.6; Behavioral score ([1]; embolus rat, dose 50 μg per kg body weight, caudal vein): 3.3 ± 0.4; Behavioral score [1, 4]: 2.6 ± 0.2; Behavioral score ([1]; embolus rat, dose 200 μg per kg body weight, caudal vein): 3.7 ± 0.4; Behavioral score ([1]; embolus rat, dose 300 μg per kg body weight, caudal vein): 4.2 ± 0.5; Inhibition rate (%) of agglutination of amyloid β peptide [2]: 73%
